From the supplement of paper PMC7840683
± gives the standard deviation of the averaged measurements.

Test system: HepaRG
Test: LDH release cytotoxicity, % of total lysis control; higher = more cytotoxic
Conditions: 48 h
Method in brief: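 On collagen I-coated 96-well plates, single-lot HepaRG cells were exposed for 48 h, in duplicate, to eight-point half-log series of test chemicals beginning at 100 µM. The exposure medium was serum-free induction medium with 0.5% DMSO, and total lysis wells got 0.1% Triton X. Resorufin fluorescence from the CytoTox-ONE reaction, read on a Tecan Safire, reported LDH in 50 µL of spent medium. Percent cytotoxicity came from normalization to on-plate vehicle and total lysis controls, averaged over the duplicates.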

Compound	LDH release cytotoxicity (0.03162 µM) [%]	LDH release cytotoxicity (0.1 µM) [%]	LDH release cytotoxicity (0.3162278 µM) [%]	LDH release cytotoxicity (1 µM) [%]	LDH release cytotoxicity (3.16228 µM) [%]	LDH release cytotoxicity (10 µM) [%]	LDH release cytotoxicity (31.6228 µM) [%]	LDH release cytotoxicity (100 µM) [%]	also measured
CCON=C(CC)C1C(=O)CC(c2c(C)cc(C)cc2C)CC1=O (centres undefined) [Tralkoxydim]	-1.61 ± 1.5	-2.54 ± 0.76	-2.84 ± 0.85	-1.69 ± 0.41	-3.18 ± 0.7	-2.04 ± 0.19	-1.88 ± 0.12	-0.758 ± 0.81	–
COc1cc(-c2ccc(N)c(OC)c2)ccc1N [3,3'-Dimethoxybenzidine]	-2.67 ± 0.52	-2.03 ± 1.2	-2.61 ± 0.54	-2.72 ± 1.3	-1.97 ± 0.08	-2.38 ± 0.65	-2.12 ± 0.23	-0.532 ± 0.63	–
CCc1cccc(C)c1N(C(=O)CCl)C(C)COC (centres undefined) [Metolachlor]	-2.35 ± 0.41	-1.88 ± 0.93	-2.04 ± 0.75	-1.88 ± 0.4	-1.33 ± 0.23	-1.85 ± 1.5	-1.51 ± 0.46	-1.21 ± 0.023	–
CC(C)=CCCC(C)CCO (centres undefined) [Citronellol]	-1.93 ± 0.69	-2.94 ± 0.29	-2.48 ± 0.3	-2.8 ± 0.43	-2.02 ± 0.57	-2.14 ± 0.43	-1.61 ± 0.76	0.398 ± 0.43	–
CC12C=CC3=C4CCC(=O)C=C4CCC3C1CCC2O (stereo not drawn) [17beta-Trenbolone]	-1.81 ± 0.85	-1.96 ± 0.88	-2.23 ± 1	-1.89 ± 0.49	-1.55 ± 0.47	-1.02 ± 0.27	-1.05 ± 0.63	0.211 ± 0.55	–
ClC1C(Cl)C(Cl)C(Cl)C(Cl)C1Cl (centres undefined) [Lindane]	-0.796 ± 0.18	-0.605 ± 0.45	-0.762 ± 1	-0.901 ± 0.75	-0.128 ± 0.47	-0.657 ± 0.1	0.201 ± 0.43	5.07 ± 0.72	–
CCCCc1ccccc1 [Butylbenzene]	-0.0627 ± 1.5	-0.967 ± 0.77	-0.793 ± 0.85	-0.547 ± 0.22	-0.941 ± 0.17	-0.027 ± 0.041	-0.00747 ± 0.57	1.27 ± 0.2	–
c1ccc2ncccc2c1 [Quinoline]	-1.44 ± 0.36	0.113 ± 1.4	-0.853 ± 0.57	-1.155 ± 0.0096	0.144 ± 0.76	-1.28 ± 1.3	-0.47 ± 0.21	2.26 ± 1.6	–
CCOP(=S)(OCC)SCSCC [Phorate]	-1.85 ± 0.87	-2.54 ± 0.18	-2.48 ± 0.53	-2.38 ± 0.48	-2.32 ± 0.28	-1.2 ± 0.89	-1.22 ± 0.69	-0.0088 ± 0.35	–
O=C(O)c1cccc(CC2COc3ccc(OCc4nc5cc(F)ccc5s4)cc3C2O)c1 (centres undefined)	-0.0534 ± 0.17	-0.136 ± 0.15	-0.338 ± 0.55	-1.53 ± 0.39	-0.67 ± 0.41	-0.7031 ± 0.0048	0.475 ± 0.99	39.6 ± 3.9	–
CCOP(=S)(OCC)Oc1nc(Cl)n(C(C)C)n1 [Isazofos]	–	-1.65 ± 0.25	–	-2.59 ± 0.06	-3.48 ± 0.65	-3 ± 0.69	-3.67 ± 1.1	1.66 ± 0.81	LDH release cytotoxicity (0.031623 µM): 0.0296 ± 0.94%; LDH release cytotoxicity (0.316228 µM): -2.1 ± 1%
CCCCC(CC)COC(=O)CCCCCCCC(=O)OCC(CC)CCCC (centres undefined) [Bis(2-ethylhexyl) nonanedioate]	-1.88 ± 0.055	-2.868 ± 0.0068	-2.85 ± 0.81	-3 ± 0.21	-2.9 ± 0.15	-2.46 ± 0.2	-2.95 ± 0.69	-1.1 ± 0.36	–
COC(=O)CSc1cc(N=c2sc(=O)n3n2CCCC3)c(F)cc1Cl [Fluthiacet-methyl]	-1.78 ± 1.1	-2.67 ± 1	-1.91 ± 1	-1.73 ± 0.018	-1.61 ± 0.37	-1.57 ± 0.3	-0.786 ± 0.091	0.903 ± 0.25	–
C=CCc1cc(S(=O)(=O)c2ccc(O)c(CC=C)c2)ccc1O [4,4'-Sulfonylbis[2-(prop-2-en-1-yl)phenol]]	-0.87 ± 0.11	-2.88 ± 0.65	-1.86 ± 0.44	-2.39 ± 0.7	-2.01 ± 0.34	-1.55 ± 0.91	-1.16 ± 0.93	0.193 ± 0.0097	–
CCOC(=O)c1ccc(C2CCC(NCC(O)COc3ccc(O)c(NS(C)(=O)=O)c3)CC2)cc1 (centres undefined)	-1.1 ± 0.76	-1.92 ± 0.32	-1.82 ± 0.24	-2.5 ± 0.6	-1.76 ± 0.12	-1.05 ± 0.85	-1.59 ± 0.16	-0.279 ± 0.043	–
CCCCOCN(C(=O)CCl)c1c(CC)cccc1CC [Butachlor]	0.674 ± 1.6	-0.43 ± 0.44	-0.96 ± 0.72	-0.4246 ± 0.0032	-0.143 ± 1.2	0.287 ± 2.1	0.713 ± 0.79	2.96 ± 1.9	–
C=CC(N)=O [Acrylamide]	-0.83 ± 0.15	-1.21 ± 0.58	-1.5 ± 0.3	-1.596 ± 0.0065	-1.78 ± 0.096	-0.843 ± 0.56	-1.75 ± 0.16	-0.493 ± 0.11	–
COC(=O)c1ccccc1N [Methyl 2-aminobenzoate]	-1.17 ± 0.31	0.00334 ± 0.73	0.277 ± 0.2	-0.0267 ± 0.46	0.248 ± 0.12	0.495 ± 0.94	0.0802 ± 0.54	1.28 ± 0.41	–
CCCc1ccccc1 [Propylbenzene]	0.0897 ± 0.19	0.202 ± 1	-0.202 ± 0.32	-0.857 ± 0.72	0.305 ± 0.066	-0.0719 ± 0.68	1.09 ± 2	0.766 ± 0.2	–

Compound	LDH release cytotoxicity (0.03162 µM) [%]	LDH release cytotoxicity (0.1 µM) [%]	LDH release cytotoxicity (0.3162278 µM) [%]	LDH release cytotoxicity (1 µM) [%]	LDH release cytotoxicity (3.16228 µM) [%]	LDH release cytotoxicity (10 µM) [%]	LDH release cytotoxicity (31.6228 µM) [%]	LDH release cytotoxicity (100 µM) [%]	also measured
CC12CCC3c4ccc(O)cc4CCC3C1CCC2O (stereo not drawn) [17alpha-Estradiol]	-0.65 ± 1.4	-1.91 ± 0.5	-1.67 ± 0.056	-1.6 ± 0.054	-1.26 ± 0.039	-1.72 ± 0.24	-0.072 ± 0.52	1.51 ± 0.69	–
CCN(CC)C(=O)c1cccc(C)c1 [DEET]	–	–	–	–	–	–	–	–	LDH release cytotoxicity (0.03305 µM): -1.66 ± 0.043%; LDH release cytotoxicity (0.1045 µM): -2.06 ± 0.73%; LDH release cytotoxicity (0.330458 µM): -2.58 ± 0.48%; LDH release cytotoxicity (1.045 µM): -2.44 ± 0.8%; LDH release cytotoxicity (3.30458 µM): -2.59 ± 0.4%; LDH release cytotoxicity (10.45 µM): -2.53 ± 0.61%; LDH release cytotoxicity (33.0458 µM): -1.85 ± 1%; LDH release cytotoxicity (104.5 µM): -1.16 ± 0.13%
OC(Cn1cncn1)(Cn1cncn1)c1ccc(F)cc1F [Fluconazole]	-1.56 ± 0.43	-0.0671 ± 1.1	0.556 ± 0.68	-0.472 ± 0.33	0.965 ± 0.97	0.138 ± 0.29	0.241 ± 0.57	0.712 ± 0.97	–
CN(Cc1cnc2nc(N)nc(N)c2n1)c1ccc(C(=O)NC(CCC(=O)O)C(=O)O)cc1 (centres undefined) [Methotrexate]	-2.75 ± 1.4	-1.02 ± 1.2	0.713 ± 1	0.595 ± 0.46	2.21 ± 1.1	1.79 ± 0.51	3.1 ± 0.33	3.39 ± 1.3	–
C[N+]1(C)CCCCC1 [1,1-Dimethylpiperidinium chloride]	-1.22 ± 0.36	-0.187 ± 0.78	-1.4 ± 0.52	-1.35 ± 0.62	0.248 ± 0.65	0.722 ± 0.62	-0.465 ± 0.11	0.762 ± 0.26	–
CNC(=O)Oc1cccc2c1OC(C)(C)O2 [Bendiocarb]	–	-1.64 ± 2.2	–	-1.67 ± 1.8	-1.78 ± 0.89	-2.76 ± 2.2	-2.289 ± 0.017	-2.6 ± 0.88	LDH release cytotoxicity (0.031623 µM): -1.26 ± 1.2%; LDH release cytotoxicity (0.316228 µM): -0.794 ± 0.9%
COCC(C)OCC(C)OCC(C)O (centres undefined) [Tripropylene glycol monomethyl ether]	-2.65 ± 0.75	-2.37 ± 0.59	-2.65 ± 0.77	-3.43 ± 0.28	-2.88 ± 0.31	-1.77 ± 1	-1.51 ± 0.6	0.876 ± 1.4	–
Cc1nc(N(C)C)nc(OC(=O)N(C)C)c1C [Pirimicarb]	-1.14 ± 0.57	-1.49 ± 0.94	-1.89 ± 0.61	-1.97 ± 1.2	-1.7 ± 0.12	-1.84 ± 0.15	-1.4 ± 0.24	-0.895 ± 1.2	–
COC(=O)CCCC(=O)OC [Dimethyl glutarate]	-0.9 ± 1.2	-1.35 ± 0.52	-1.16 ± 1.5	-1.42 ± 0.98	-1.03 ± 1.1	-1.13 ± 0.84	-1.36 ± 0.88	3.2 ± 2.1	–
CCOP(=S)(OCC)Oc1ccc([N+](=O)[O-])cc1 [Parathion]	-1.76 ± 1.2	-2.78 ± 0.71	-2.35 ± 0.15	-2.92 ± 0.81	-3.21 ± 0.57	-2.39 ± 0.84	-1.78 ± 1.4	6.21 ± 0.097	–
O=C(O)c1ccccc1 [Sodium benzoate]	–	-2.13 ± 1.3	–	-3.15 ± 0.39	-2.88 ± 0.63	-2.37 ± 0.27	-1.36 ± 0.096	-0.292 ± 1.2	LDH release cytotoxicity (0.031623 µM): 0.689 ± 0.63%; LDH release cytotoxicity (0.316228 µM): -2.23 ± 0.31%
Cn1cc(-c2ccccc2)c(=O)c(-c2cccc(C(F)(F)F)c2)c1 [1-Methyl-3-phenyl-5-(3-(trifluoromethyl)phenyl)-4-pyridone]	–	–	–	–	–	–	–	–	LDH release cytotoxicity (0.02893 µM): -1.78 ± 0.74%; LDH release cytotoxicity (0.0915 µM): -1.31 ± 0.83%; LDH release cytotoxicity (0.289348 µM): -1.94 ± 0.24%; LDH release cytotoxicity (0.915 µM): -2.56 ± 0.53%; LDH release cytotoxicity (2.89348 µM): -2.08 ± 0.3%; LDH release cytotoxicity (9.15 µM): -2.29 ± 0.32%; LDH release cytotoxicity (28.9348 µM): -1.81 ± 0.048%; LDH release cytotoxicity (91.5 µM): 20.3 ± 0.7%
NC(=O)NO [Hydroxyurea]	-2.94 ± 1.1	-1.59 ± 1.4	-2.4 ± 0.64	-2.62 ± 0.18	-1.83 ± 0.11	-1.79 ± 0.38	-0.278 ± 0.73	2.82 ± 1.5	–
O=C(Oc1ccccc1)c1cccc(C(=O)Oc2ccccc2)c1 [Diphenyl isophthalate]	-0.961 ± 0.23	-0.451 ± 0.024	-0.0836 ± 0.51	-0.13 ± 0.26	-0.548 ± 1.1	-0.00904 ± 1.2	0.842 ± 0.83	2.16 ± 1.3	–
c1ccc2c(c1)-c1cccc3cccc-2c13 [Fluoranthene]	-1.36 ± 0.16	-0.258 ± 0.61	-0.857 ± 0.079	-0.0961 ± 0.27	-0.593 ± 0.16	-0.226 ± 0.011	-0.969 ± 0.3	-2.77 ± 0.41	–
Cc1cccc(Nc2cc(Cl)nc(SCC(=O)O)n2)c1C [Pirinixic acid]	-1.32 ± 0.91	-1.59 ± 0.0083	-0.978 ± 0.7	-0.873 ± 0.35	-1.38 ± 0.058	-1.43 ± 0.6	0.274 ± 0.74	2.17 ± 0.81	–
[O-][Cl+]O [Sodium chlorite]	0.165 ± 0.73	0.219 ± 1.2	-0.973 ± 0.84	-1.49 ± 0.98	-1.49 ± 0.44	0.0935 ± 0.52	-0.775 ± 0.093	1.68 ± 0.64	–
COc1cccc(C(O)C2CCN(CCc3ccc(F)cc3)CC2)c1OC (centres undefined) [Volinanserin]	-0.377 ± 0.72	-1.03 ± 1.4	0.298 ± 1.8	-0.566 ± 0.98	-0.0858 ± 0.33	-1.21 ± 0.87	0.408 ± 1.3	7.12 ± 0.34	–
CCC(C)c1cc([N+](=O)[O-])cc([N+](=O)[O-])c1O (centres undefined) [Dinoseb]	-1.28 ± 0.054	0.378 ± 0.78	-1.3 ± 0.076	-1.58 ± 0.37	-0.982 ± 1	-0.113 ± 0.038	0.81 ± 0.59	2.87 ± 1.4	–
